Source: patent US20220378802A1, “TREATMENT OF ALCOHOLIC HEPATITIS” (Durect Corporation, priority 2019, published 2022)
“Also recorded” adds a separate entry of the source.

Assays:
[1] = system: patients with alcoholic hepatitis; assay: Pharmacodynamic signals (Lille score, MELD, bilirubin, survival) in Phase 2a trial; assay type: in vivo, human
Experimental: As described in more detail below, a total of 19 patients were enrolled into an open-label Phase 2a multi-center trial, of whom 15 had Maddrey's Discriminant Function (MDF) ≥32 (Severe Alcoholic Hepatitis (SAH)), 12 had MELD scores at 21-30, and 11 had baseline serum bilirubin levels >8 mg/dL. All patients received IV infused 25HC3S (at 30, 90, or 150 mg) on Day 1 and Day 4 (if still hospitalized), and were followed for 28-days. The final enrollment was 19 patients comprised of: 8 patients (4 moderate and 4 severe) dosed at 30 mg, 7 patients (3 moderate and 4 severe) dosed at 90 mg, and 4 patients (4 severe) dosed at 150 mg.
• Study Drug A 25HC3S sodium salt solution contained: • 30 mg/mL 25HC3S sodium salt; • 240 mg/mL hydroxypropyl-beta-cyclodextrin; and • 50 mmole phosphate buffer • The 25HC3S sodium salt solution was diluted in 100 mL 5% dextrose or 0.9% sodium chloride infusion solution: • Dose 1: 30 mg of 25HC3S sodium salt in 100 mL 5% dextrose or 0.9% sodium chloride • Dose 2: 90 mg of 25HC3S sodium salt in 100 mL 5% dextrose or 0.9% sodium chloride • Dose 3: 150 mg of 25HC3S sodium salt in 100 mL 5% dextrose or 0.9% sodium chloride • 25HC3S sodium salt was administered by slow intravenous infusion over 2 hrs (50 mL/h) until the entire dose is given at Day 1 and Day 4. If a patient met the hospital discharge criteria prior to the second dose, the patient received only one dose instead of two doses. • Study Procedure The study was conducted in two parts. Part A included patients with MELD scores of 11-20 (moderate AH patients), and Part B included patients with MELD of scores 21-30. The doses of 25HC3S sodium salt administered were 30 mg and 90 mg for Part A and 30 mg, 90 mg and 150 mg for Part B, with 4 patients per dose group per Part (except for only 3 patients in the 90 mg cohort of Part A). All patients were followed to Day 28. • The study started in 4 moderate AH patients (Part A) at 30 mg dose level. After completing the dosing, a Dose Escalation Committee (DEC) reviewed safety, tolerability and pharmacokinetic (PK) data from all 4 patients and determined that it was safe to move forward to dose 4 severe AH patients (Part B) at the same dose level, 30 mg, as well as escalating the dose level to 90 mg in moderate patients (Part A). The same dose escalation procedure was then conducted in Part B until all 4 patients received 150 mg doses. • A flow diagram of the study is depicted in FIG. 2. Each dose cohort enrolled up to 4 subjects. Study subjects received up to 2 doses of 25HC3S sodium salt. The first dose was administered on Day 1 and, if still hospitalized, the second dose was administered on Day 4. A pharmacokinetic (PK) sample was collected at: Time 0 (pre-dose), 1 hour post-dose initiation, 2 hours (end of infusion), 3 hours post-dose initiation, 4 hours post-dose initiation, 8 hours post-dose initiation, 12 hours post-dose initiation, 24-hours post-dose initiation and 50 hours post-dose initiation.
• 1. Patients with alcoholic hepatitis defined in this clinical trial as: • a. History of heavy alcohol abuse: >40 g/day in females or >60 g/day in males for a minimum period of 6 months, AND • b. Consumed alcohol within 12 weeks of entry into the study, AND • c. Serum bilirubin >3 mg/dL AND AST>ALT, but less than 300 U/L, AND • d. MELD score between 11-30, inclusive A listing of the baseline laboratory characteristics of the subjects of each cohort is shown in the Table below. […]

[2] = Pharmacokinetics of 25HC3S in healthy subjects (earlier study); assay type: in vivo, human; settings: Healthy subjects (N = 5), single dose of 150 mg
Description: The clearance of 25HC3S sodium was decreased by 80% in AH patients as compared to that in healthy subjects from an earlier study. A comparison of the pharmacokinetic parameters of 25HC3S administered to healthy subjects versus subjects with alcoholic hepatitis is summarized in the following Table. A comparison of the plasma concentration of 25HC3S administered to healthy subjects versus subjects with alcoholic hepatitis is depicted in FIG. 5.

[3] = All patients with 30 or 90 mg (14), Day 7
[4] = Baseline bilirubin >8 mg/dL (11), Day 7
[5] = Baseline bilirubin >8 mg/dL with 30 or 90 mg (8), Day 7
[6] = MELD 21-30 with 30 or 90 mg (8), Day 7
[7] = SAH with 30 or 90 mg (11), Day 7

C[C@H](CCCC(C)(C)O)[C@H]1CC[C@H]2[C@@H]3CC=C4C[C@@H](OS(=O)(=O)O)CC[C@]4(C)[C@H]3CC[C@]12C [25HC3S, 5-cholesten-3,25-diol, 3-sulfate]
patients with a Lille score below 0.45 (number of patients) ([1]; 18 AH patients who returned for Day 7 visit): 16/18
reductions from baseline in bilirubin (day 7 and 28) and MELD (day 28) compared with University of Louisville historical control ([1]; 19 patients): statistically significantly greater reductions
survival rate ([1]; 28-day follow-up period, all patients): 100%
Responders (Lille score <0.45) ([1]; All Patients (18), Day 7): 89%
Lille Median (1st, 3rd quartile) [1, 3]: 0.05 (0.04, 0.19)
Responders (Lille score <0.45) [1, 3]: 100%
Lille Median (1st, 3rd quartile) [1, 4]: 0.10 (0.05, 0.20)
Responders (Lille score <0.45) [1, 4]: 82%
Lille Median (1st, 3rd quartile) [1, 5]: 0.10 (0.05, 0.19)
Responders (Lille score <0.45) [1, 5]: 100%
serum bilirubin levels ([1]; Day 7, one or two doses): significantly reduced
MELD scores ([1]; Day 28, one or two doses): significantly reduced
Lille Median (1st, 3rd quartile) ([1]; MELD 21-30 (12), Day 7): 0.19 (0.11, 0.25)
Responders (Lille score <0.45) ([1]; MELD 21-30 (12), Day 7): 83%
Lille Median (1st, 3rd quartile) [1, 6]: 0.19 (0.10, 0.19)
Responders (Lille score <0.45) [1, 6]: 100%
Lille Median (1st, 3rd quartile) ([1]; SAH (15), Day 7): 0.19 (0.05, 0.22)
median reduction of MELD from baseline ([1]; SAH patients treated with 30 or 90 mg, Day 28, p=0.01): −19.0%
MELD score change from baseline ([1]; SAH patients, Day 28, 1 or 2 doses, p=0.01): −17.5%
Lille Median (1st, 3rd quartile) [1, 7]: 0.12 (0.05, 0.19)
Responders (Lille score <0.45) [1, 7]: 100%
Responders (Lille score <0.45) ([1]; SAH, MDF≥32 (15), Day 7): 87%
reduction from baseline of serum total bilirubin levels ([1]; all AH patients (n=18), Day 7): −14%
survival through 28-day follow-up period ([1]; all patients, including SAH): survived
Lille score at Day 7 ([1]; all subjects administered 30 mg and 90 mg (FIG. 6)): less than 0.45
Lille scores compared with published historical data (Louvet et al., 145 AH patients) ([1]; p<0.0001): significantly lower; also recorded: significantly better
Lille scores compared with University of Louisville historical control (standard of care) ([1]; p=0.005): statistically significantly lower
serum bilirubin change ([1]; patients with baseline bilirubin >8.0 mg/dL, Day 7, p=0.02): −25.1%
Lille score at Day 7 ([1]; two of the subjects having severe AH administered 150 mg (FIG. 6)): greater than 0.45
V [2]: 55.0 (4.3) L
AUC(0-inf) ([2]; human, plasma): 6190 ng·h/mL
Cmax ([2]; human, plasma): 3100 ng/mL
clearance ([2]; human, plasma): 408 mL/min
half-life ([2]; human, plasma, read-out: T½ (converted)): 1.6 h
